Laboratory results as given in ChEMBL document CHEMBL1201862, “PubChem BioAssay data set” (2004).
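Cells were grown in 96-well plates and exposed to each compound for 48 hours at five concentrations; endpoints were interpolated linearly between bracketing concentrations, or set to the highest concentration if not reached. GI50 marks 50% less growth.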 Active and inactive are the calls of the source. No stated cut-off is given here; in the data, active = GI50 up to about 1.1 µM and inactive = higher.

Assays:
Assay in all cases: growth of human tumour cells (NCI), 48 h
K562 = test system: K562
OVCAR-5 = test system: OVCAR-5
U-251 = test system: U-251
T47D = test system: T47D
HCT-15 = test system: HCT-15
LOX IMVI = test system: LOX IMVI
NCI-H460 = test system: NCI-H460
UO-31 = test system: UO-31
TK-10 = test system: TK-10
CAKI-1 = test system: CAKI-1
SF-295 = test system: SF-295
NCI-H226 = test system: NCI-H226
MDA-MB-231 = test system: MDA-MB-231
EKVX = test system: EKVX
UACC-62 = test system: UACC-62
NCI-H23 = test system: NCI-H23
SK-MEL-28 = test system: SK-MEL-28
IGROV-1 = test system: IGROV-1
SNB-75 = test system: SNB-75
PC-3 = test system: PC-3
SK-OV-3 = test system: SK-OV-3
OVCAR-3 = test system: OVCAR-3
UACC-257 = test system: UACC-257
SNB-19 = test system: SNB-19
HOP-62 = test system: HOP-62
SK-MEL-5 = test system: SK-MEL-5
MDA-MB-435 = test system: MDA-MB-435
M14 = test system: M14
SF-268 = test system: SF-268
786-0 = test system: 786-0
BT-549 = test system: BT-549
HT-29 = test system: HT-29
SW-620 = test system: SW-620
A498 = test system: A498
Malme-3M = test system: Malme-3M
NCI/ADR-RES = test system: NCI/ADR-RES
COLO 205 = test system: COLO 205
HCC 2998 = test system: HCC 2998
OVCAR-4 = test system: OVCAR-4
MCF7 = test system: MCF7
Hs-578T = test system: Hs-578T
ACHN = test system: ACHN
KM12 = test system: KM12
DU-145 = test system: DU-145
NCI-H522 = test system: NCI-H522
HOP-92 = test system: HOP-92
HCT-116 = test system: HCT-116
MOLT-4 = test system: MOLT-4
RXF 393 = test system: RXF 393
OVCAR-8 = test system: OVCAR-8
SN12C = test system: SN12C
MDA-N = test system: MDA-N
A549 = test system: A549
RPMI-8226 = test system: RPMI-8226
CCRF-CEM = test system: CCRF-CEM
SK-MEL-2 = test system: SK-MEL-2
SF-539 = test system: SF-539

Measured: GI50

Nc1c(S(N)(=O)=O)cc(S(N)(=O)=O)cc1S(N)(=O)=O
inactive: K562 > 100 µM | OVCAR-5 > 100 µM | U-251 > 100 µM | T47D > 100 µM | LOX IMVI > 100 µM | NCI-H460 > 100 µM | UO-31 > 100 µM | TK-10 > 100 µM | CAKI-1 > 100 µM | SF-295 > 100 µM | NCI-H226 > 100 µM | MDA-MB-231 > 100 µM | EKVX > 100 µM | UACC-62 > 100 µM | NCI-H23 > 100 µM | SK-MEL-28 > 100 µM | IGROV-1 > 100 µM | SNB-75 > 100 µM | PC-3 61.1 µM | SK-OV-3 > 100 µM | OVCAR-3 > 100 µM | UACC-257 > 100 µM | SNB-19 > 100 µM | HOP-62 > 100 µM | SK-MEL-5 > 100 µM | MDA-MB-435 > 100 µM | M14 > 100 µM | SF-268 > 100 µM | 786-0 > 100 µM | BT-549 > 100 µM | HT-29 > 100 µM | SW-620 > 100 µM | A498 > 100 µM | Malme-3M > 100 µM | NCI/ADR-RES > 100 µM | COLO 205 > 100 µM | HCC 2998 > 100 µM | OVCAR-4 > 100 µM | MCF7 > 100 µM | Hs-578T > 100 µM | ACHN > 100 µM | KM12 > 100 µM | DU-145 > 100 µM | NCI-H522 > 100 µM | HOP-92 > 100 µM | HCT-116 > 100 µM | MOLT-4 > 100 µM | RXF 393 > 100 µM | OVCAR-8 > 100 µM | SN12C > 100 µM | MDA-N > 100 µM | A549 > 100 µM | RPMI-8226 > 100 µM
> 100 µM: HCT-15

CC(=O)OCC(OC(C)=O)C(OC(C)=O)C(OC(C)=O)C(C=NN(C(C)=O)S(=O)(=O)c1ccc(/C=C2\NC(=O)NC2=O)cc1)OC(C)=O (configuration not stated)
inactive: K562 > 100 µM | OVCAR-5 > 100 µM | U-251 > 100 µM | T47D > 100 µM | CCRF-CEM 84.3 µM | LOX IMVI > 100 µM | NCI-H460 > 100 µM | UO-31 > 100 µM | TK-10 > 100 µM | CAKI-1 > 100 µM | SF-295 > 100 µM | NCI-H226 > 100 µM | MDA-MB-231 > 100 µM | EKVX > 100 µM | UACC-62 > 100 µM | NCI-H23 > 100 µM | IGROV-1 > 100 µM | SNB-75 > 100 µM | PC-3 > 100 µM | SK-OV-3 > 100 µM | OVCAR-3 > 100 µM | UACC-257 > 100 µM | SNB-19 > 100 µM | HOP-62 > 100 µM | SK-MEL-5 > 100 µM | MDA-MB-435 > 100 µM | M14 > 100 µM | SF-268 > 100 µM | 786-0 > 100 µM | BT-549 > 100 µM | HT-29 > 100 µM | SW-620 > 100 µM | A498 > 100 µM | SK-MEL-2 > 100 µM | Malme-3M > 100 µM | NCI/ADR-RES > 100 µM | COLO 205 > 100 µM | HCC 2998 > 100 µM | OVCAR-4 > 100 µM | MCF7 > 100 µM | Hs-578T > 100 µM | ACHN > 100 µM | KM12 > 100 µM | DU-145 > 100 µM | NCI-H522 > 100 µM | HCT-116 > 100 µM | MOLT-4 > 100 µM | RXF 393 > 100 µM | OVCAR-8 > 100 µM | SN12C > 100 µM | MDA-N > 100 µM | A549 > 100 µM | RPMI-8226 > 100 µM
> 100 µM: HCT-15

N#Cc1sc2nc3ccccc3n2c1N
inactive: OVCAR-5 > 100 µM | U-251 83.9 µM | T47D 89.7 µM | CCRF-CEM 29.3 µM | LOX IMVI 40.8 µM | UO-31 36.6 µM | TK-10 14.9 µM | CAKI-1 37.2 µM | SF-295 > 100 µM | NCI-H226 95.9 µM | MDA-MB-231 76.4 µM | EKVX 85.1 µM | UACC-62 62.4 µM | NCI-H23 52.5 µM | SK-MEL-28 > 100 µM | IGROV-1 58.7 µM | SNB-75 29.7 µM | PC-3 73.6 µM | SK-OV-3 40.1 µM | OVCAR-3 68.7 µM | UACC-257 > 100 µM | SNB-19 > 100 µM | HOP-62 84.5 µM | SK-MEL-5 95.7 µM | MDA-MB-435 > 100 µM | M14 > 100 µM | SF-268 60.3 µM | 786-0 > 100 µM | BT-549 49.2 µM | HT-29 75 µM | SW-620 92.5 µM | A498 39.4 µM | SK-MEL-2 26.1 µM | Malme-3M > 100 µM | NCI/ADR-RES > 100 µM | COLO 205 78.7 µM | HCC 2998 36.2 µM | OVCAR-4 > 100 µM | SF-539 55.3 µM | MCF7 84.5 µM | Hs-578T 36.2 µM | ACHN 92.3 µM | DU-145 94.8 µM | NCI-H522 > 100 µM | HOP-92 > 100 µM | HCT-116 > 100 µM | MOLT-4 31.4 µM | RXF 393 17.6 µM | OVCAR-8 78.2 µM | MDA-N > 100 µM | A549 47.4 µM | RPMI-8226 84.3 µM
active: KM12 0.344 µM
65.5 µM: HCT-15
